Test system: NCI-H1341 complex spheroids, percent test/control
Assay: Anticancer human tumor NCI-H1341 cell line growth inhibition [AhR];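 note: spheroids exposed to agents for seven days before readout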
Settings: for IC50: curve of first compound; for viability, T/C: stronger effect = lower value
Outline: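 Complex tumor spheroids co-cultured with HUVEC and human MSC stroma; AhR antagonists tested in combination with standard-of-care and investigational agents. Top concentration at or near clinical Cmax (else 10 microM), half-log dilutions; growth expressed as percent test/control.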

[1] = second compound 0.1 µM, first compound 0.0316 µM
[2] = second compound 0.1 µM, first compound 0.1 µM
[3] = second compound 0.316 µM, first compound 0.0316 µM
[4] = second compound 0.316 µM, first compound 0.1 µM
[5] = second compound 1 µM, first compound 0.0316 µM
[6] = second compound 1 µM, first compound 0.1 µM
[7] = second compound 3.16 µM, first compound 0.0316 µM
[8] = second compound 3.16 µM, first compound 0.1 µM
[9] = second compound 10 µM, first compound 0.0316 µM
[10] = second compound 10 µM, first compound 0.1 µM

Compound `CC1(C)CCC(CN2CCN(c3ccc(C(=O)NS(=O)(=O)c4ccc(NCC5CCOCC5)c([N+](=O)[O-])c4)c(Oc4cnc5[nH]ccc5c4)c3)CC2)=C(c2ccc(Cl)cc2)C1` + Cc1ccccc1N=Nc1ccc(NC(=O)c2ccnn2C)c(C)c1 has an IC50 (second compound 0.1 µM) of 1970 nM, an IC50 (second compound 0.316 µM) of 2260 nM and an IC50 (second compound 1 µM) of 1990 nM. For the same compound, the IC50 (second compound 3.16 µM) was 539 nM, the IC50 (second compound 10 µM) was < 31.6 nM and the viability, T/C [1] was 96.5%. The viability, T/C [2] was 86%, the viability, T/C (second compound 0.1 µM, first compound 0.316 µM) was 96% and the viability, T/C (second compound 0.1 µM, first compound 1 µM) was 60.5%. For the same compound, the viability, T/C (second compound 0.1 µM, first compound 3.16 µM) was 41.3%, the viability, T/C (second compound 0.1 µM, first compound 10 µM) was 12.6% and the viability, T/C [3] was 100%. The viability, T/C [4] was 82.3%, the viability, T/C (second compound 0.316 µM, first compound 0.316 µM) was 94.2% and the viability, T/C (second compound 0.316 µM, first compound 1 µM) was 78.3%. The viability, T/C (second compound 0.316 µM, first compound 3.16 µM) was 38.1%, the viability, T/C (second compound 0.316 µM, first compound 10 µM) was 14.3% and the viability, T/C [5] was 80.3%. The viability, T/C [6] was 70.2%, the viability, T/C (second compound 1 µM, first compound 0.316 µM) was 84.2% and the viability, T/C (second compound 1 µM, first compound 1 µM) was 72.3%. It also gave a viability, T/C (second compound 1 µM, first compound 3.16 µM) of 34.6%, a viability, T/C (second compound 1 µM, first compound 10 µM) of 14.1% and a viability, T/C [7] of 80%. It also gave a viability, T/C [8] of 54.4%, a viability, T/C (second compound 3.16 µM, first compound 0.316 µM) of 61% and a viability, T/C (second compound 3.16 µM, first compound 1 µM) of 46.7%. For the same compound, the viability, T/C (second compound 3.16 µM, first compound 3.16 µM) was 30.1%, the viability, T/C (second compound 3.16 µM, first compound 10 µM) was 16.5% and the viability, T/C [9] was 44.2%. For the same compound, the viability, T/C [10] was 39.9%, the viability, T/C (second compound 10 µM, first compound 0.316 µM) was 44.5% and the viability, T/C (second compound 10 µM, first compound 1 µM) was 35.4%. The viability, T/C (second compound 10 µM, first compound 3.16 µM) was 22% and the viability, T/C (second compound 10 µM, first compound 10 µM) was 12.8%.
In the case of `Cn1ncnc1C1c2n[nH]c(=O)c3cc(F)cc(c23)NC1c1ccc(F)cc1` (stereo not given) + Cc1ccccc1N=Nc1ccc(NC(=O)c2ccnn2C)c(C)c1, the IC50 (second compound 0.1 µM) is reported as > 100 nM, the IC50 (second compound 0.316 µM) is reported as > 100 nM and the IC50 (second compound 1 µM) is reported as > 100 nM. For the same compound, the IC50 (second compound 3.16 µM) was > 100 nM, the IC50 (second compound 10 µM) was 70.1 nM and the viability, T/C (second compound 0.1 µM, first compound 0.000316 µM) was 112%. The viability, T/C (second compound 0.1 µM, first compound 0.001 µM) was 105%, the viability, T/C (second compound 0.1 µM, first compound 0.00316 µM) was 80.9% and the viability, T/C (second compound 0.1 µM, first compound 0.01 µM) was 86.1%. For the same compound, the viability, T/C [1] was 95.2%, the viability, T/C [2] was 90.1% and the viability, T/C (second compound 0.316 µM, first compound 0.000316 µM) was 89.9%. The viability, T/C (second compound 0.316 µM, first compound 0.001 µM) was 103%, the viability, T/C (second compound 0.316 µM, first compound 0.00316 µM) was 93.6% and the viability, T/C (second compound 0.316 µM, first compound 0.01 µM) was 101%. For the same compound, the viability, T/C [3] was 90.9%, the viability, T/C [4] was 84.5% and the viability, T/C (second compound 1 µM, first compound 0.000316 µM) was 101%. For the same compound, the viability, T/C (second compound 1 µM, first compound 0.001 µM) was 94.2%, the viability, T/C (second compound 1 µM, first compound 0.00316 µM) was 80.2% and the viability, T/C (second compound 1 µM, first compound 0.01 µM) was 88.8%. It also gave a viability, T/C [5] of 84.9%, a viability, T/C [6] of 59.6% and a viability, T/C (second compound 3.16 µM, first compound 0.000316 µM) of 75.6%. For the same compound, the viability, T/C (second compound 3.16 µM, first compound 0.001 µM) was 72.5%, the viability, T/C (second compound 3.16 µM, first compound 0.00316 µM) was 83.7% and the viability, T/C (second compound 3.16 µM, first compound 0.01 µM) was 79%. It also gave a viability, T/C [7] of 70.5%, a viability, T/C [8] of 54.6% and a viability, T/C (second compound 10 µM, first compound 0.000316 µM) of 56.3%. For the same compound, the viability, T/C (second compound 10 µM, first compound 0.001 µM) was 56.5%, the viability, T/C (second compound 10 µM, first compound 0.00316 µM) was 47.7% and the viability, T/C (second compound 10 µM, first compound 0.01 µM) was 59.9%. It also gave a viability, T/C [9] of 58.2% and a viability, T/C [10] of 41.7%.

From PubChem BioAssay AID1919014 (Molecular Pharmacology Branch, DTP, NCI, 2023)
